Test results: the supplement of paper PMC10307832

Tests used:
Assay in all cases: relative viability (nuclei count vs DMSO), 5 days (fraction); higher = more cells survive
[1] = compound: C1/C(=C\C2=CC=CS2)/C(=O)/C(=C/C3=CC=CS3)/C1 + Cc1nc(Nc2ncc(C(=O)Nc3c(C)cccc3Cl)s2)cc(N2CCN(CCO)CC2)n1 [Dasatinib] (partner 0.075 µM)
Outline: (§1)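 Each reported value is a median over duplicate plates. It expresses relative viability: treated-well nuclei count divided by vehicle-well nuclei count. Lung cancer cell lines in 1536-well plates were dosed by pin tool a day after seeding, alone with one drug or with a fixed anchor-drug dose plus five library-drug doses (not always all listed) in √10 steps, and nuclei were counted after 5 days.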

TPCA-1 + Pictilisib = compound: C1=CC(=CC=C1C2=CC(=C(S2)NC(=O)N)C(=O)N)F [TPCA-1] + CS(=O)(=O)N1CCN(Cc2cc3nc(-c4cccc5[nH]ncc45)nc(N4CCOCC4)c3s2)CC1 [Pictilisib] (partner 1 µM)
Outline: as §1

[2] = compound: C[C@]12O[C@H](C[C@]1(O)CO)n1c3ccccc3c3c4c(c5c6ccccc6n2c5c31)CNC4=O [Lestaurtinib] + CCNC(=O)c1noc(-c2cc(C(C)C)c(O)cc2O)c1-c1ccc(CN2CCOCC2)cc1 [Luminespib] (partner 0.01 µM)
Outline: as §1

Lestaurtinib + Lapatinib = compound: C[C@]12O[C@H](C[C@]1(O)CO)n1c3ccccc3c3c4c(c5c6ccccc6n2c5c31)CNC4=O [Lestaurtinib] + CS(=O)(=O)CCNCc1ccc(-c2ccc3ncnc(Nc4ccc(OCc5cccc(F)c5)c(Cl)c4)c3c2)o1 [Lapatinib] (partner 2 µM)
Outline: as §1

Row | Cell Line | relative viability ([1]; first compound 0.2 µM) | relative viability ([1]; first compound 0.6325 µM) | relative viability ([1]; first compound 2 µM) | relative viability ([1]; first compound 6.325 µM) | relative viability ([1]; first compound 20 µM) | relative viability (TPCA-1 + Pictilisib; first compound 0.04 µM) | relative viability (TPCA-1 + Pictilisib; first compound 0.1265 µM) | relative viability (TPCA-1 + Pictilisib; first compound 0.4 µM) | relative viability (TPCA-1 + Pictilisib; first compound 1.265 µM) | relative viability (TPCA-1 + Pictilisib; first compound 4 µM) | relative viability ([2]; first compound 0.01581 µM) | relative viability ([2]; first compound 0.05 µM) | relative viability ([2]; first compound 0.1581 µM) | relative viability ([2]; first compound 0.5 µM) | relative viability (Lestaurtinib + Lapatinib; first compound 0.005 µM) | relative viability (Lestaurtinib + Lapatinib; first compound 0.01581 µM) | relative viability (Lestaurtinib + Lapatinib; first compound 0.05 µM) | relative viability (Lestaurtinib + Lapatinib; first compound 0.1581 µM) | relative viability (Lestaurtinib + Lapatinib; first compound 0.5 µM) | relative viability ([2]; first compound 0.005 µM)
1 | ABC-1 | 0.648 | 0.576 | 0.626 | 0.7 | 0.701 | 0.82 | 0.479 | 0.672 | 0.429 | 0.524 | 0.323 | 0.445 | 0.331 | 0.178 | 1.27 | 1.32 | 1.06 | 1.01 | 1.15 | –
2 | NCI-H520 | 0.218 | 0.212 | 0.165 | 0.241 | 0.213 | 0.351 | 0.242 | 0.307 | 0.319 | 0.319 | 0.202 | 0.234 | 0.217 | 0.244 | 0.833 | 1 | 0.59 | 0.48 | 0.252 | 0.226
3 | LCLC-97TM1 | 0.896 | 0.776 | 0.791 | 0.672 | 0.811 | 0.183 | 0.157 | 0.199 | 0.151 | 0.111 | 0.678 | 0.363 | 0.62 | 0.233 | 1.18 | 1.18 | 0.767 | 0.196 | 0.163 | 0.71
4 | NCI-H2170 | 0.47 | 0.632 | 0.639 | 0.622 | 0.511 | 0.373 | 0.27 | 0.32 | 0.32 | 0.209 | 0.519 | 0.593 | 0.383 | 0.266 | 0.267 | 0.248 | 0.273 | 0.238 | 0.201 | 0.501
5 | NCI-H1793 | 0.381 | 0.441 | 0.472 | 0.341 | 0.37 | 0.292 | 0.381 | 0.454 | 0.245 | 0.28 | 0.249 | 0.156 | 0.154 | 0.161 | 0.927 | 0.907 | 0.467 | 0.441 | 0.235 | 0.193
